Assays:
Cyclooxygenase-2 = target: T1, Cyclooxygenase-2 (Canis lupus familiaris, UniProt Q8SPQ9)
T1 sequence (Q8SPQ9 whole entry): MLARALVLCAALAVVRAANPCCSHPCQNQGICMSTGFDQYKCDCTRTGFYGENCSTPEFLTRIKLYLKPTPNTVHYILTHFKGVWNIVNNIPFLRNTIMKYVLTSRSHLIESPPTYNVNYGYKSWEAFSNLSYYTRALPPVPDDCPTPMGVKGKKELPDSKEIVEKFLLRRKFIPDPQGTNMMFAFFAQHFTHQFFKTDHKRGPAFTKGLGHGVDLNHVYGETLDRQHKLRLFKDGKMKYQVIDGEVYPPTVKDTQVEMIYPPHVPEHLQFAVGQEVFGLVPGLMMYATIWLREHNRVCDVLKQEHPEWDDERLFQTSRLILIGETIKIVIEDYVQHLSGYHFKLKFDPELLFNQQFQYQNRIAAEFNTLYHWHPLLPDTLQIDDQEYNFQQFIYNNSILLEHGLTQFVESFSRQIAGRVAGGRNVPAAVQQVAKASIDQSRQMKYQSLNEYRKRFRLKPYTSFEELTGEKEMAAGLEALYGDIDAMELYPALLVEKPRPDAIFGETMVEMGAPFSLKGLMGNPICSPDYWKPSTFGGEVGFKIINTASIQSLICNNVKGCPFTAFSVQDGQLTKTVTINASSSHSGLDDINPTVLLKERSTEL
Description: Inhibition of COX2 by canine whole blood assay

Canis lupus familiaris = organism: Canis lupus familiaris; test: Selectivity for COX1 over COX2 by canine whole blood assay
[1] = target: T2, Prostaglandin G/H synthase 1 (Canis lupus familiaris, UniProt Q8HZR1); test: Inhibition of COX1 by canine whole blood assay; format: tissue-based
T2 sequence (Q8HZR1 whole entry): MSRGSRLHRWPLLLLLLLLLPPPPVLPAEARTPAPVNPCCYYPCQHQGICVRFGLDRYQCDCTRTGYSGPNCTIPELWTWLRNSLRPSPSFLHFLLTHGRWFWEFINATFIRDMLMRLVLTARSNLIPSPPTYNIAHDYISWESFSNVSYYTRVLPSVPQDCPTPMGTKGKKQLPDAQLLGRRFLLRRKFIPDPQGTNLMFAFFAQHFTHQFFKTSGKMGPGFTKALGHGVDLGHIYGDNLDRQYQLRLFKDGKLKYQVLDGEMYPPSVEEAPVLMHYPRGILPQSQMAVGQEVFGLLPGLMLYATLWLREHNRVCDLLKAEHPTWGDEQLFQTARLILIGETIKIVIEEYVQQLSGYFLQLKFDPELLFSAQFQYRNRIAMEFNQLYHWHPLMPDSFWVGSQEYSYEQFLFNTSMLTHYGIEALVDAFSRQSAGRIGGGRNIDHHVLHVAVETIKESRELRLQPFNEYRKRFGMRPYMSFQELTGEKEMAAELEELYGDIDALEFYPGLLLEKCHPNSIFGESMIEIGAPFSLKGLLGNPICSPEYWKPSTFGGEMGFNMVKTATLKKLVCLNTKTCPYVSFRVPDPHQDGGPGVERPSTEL

[2] = Cmax in Beagle dog at 2 mg/kg, po; format: ADME, organism-based, Canis lupus familiaris; design: dose 2 mg/kg, route oral; conditions: in vivo
[3] = Tmax in Beagle dog at 2 mg/kg, po; format: ADME, organism-based, Canis lupus familiaris; design: dose 2 mg/kg, route oral; conditions: in vivo
Canis familiaris [4] = test: AUC in Beagle dog at 2 mg/kg, po; format: ADME, organism-based, Canis lupus familiaris, Plasma; design: dose 2 mg/kg, route oral; conditions: in vivo
[5] = Half life in Beagle dog at 2 mg/kg, po; format: ADME, organism-based, Canis lupus familiaris; design: dose 2 mg/kg, route oral; conditions: in vivo
[6] = Cmax in Beagle dog at 5 mg/kg, po; format: ADME, organism-based, Canis lupus familiaris; design: dose 5 mg/kg, route oral; conditions: in vivo
[7] = Tmax in Beagle dog at 5 mg/kg, po; format: ADME, organism-based, Canis lupus familiaris; design: dose 5 mg/kg, route oral; conditions: in vivo
[8] = Half life in Beagle dog at 5 mg/kg, po; format: ADME, organism-based, Canis lupus familiaris; design: dose 5 mg/kg, route oral; conditions: in vivo
Canis familiaris [9] = organism: Canis familiaris; conditions: dog, in vivo, po, 5 mg/kg
Description: AUC in Beagle dog at 5 mg/kg, po

Structure (SMILES)	IC50 (Cyclooxygenase-2) [nM]	Ratio (Canis lupus familiaris)	IC50 [1] [nM]	other results
CS(=O)(=O)c1ccc(-n2nc(C(F)(F)F)cc2OCc2ccccc2)nc1	> 500			
COc1cc(C(F)(F)F)nn1-c1ccc(S(C)(=O)=O)cn1	> 500			
CS(=O)(=O)c1ccc(-n2nc(C(F)(F)F)cc2OCc2cccc(F)c2)nc1	> 500			
CS(=O)(=O)c1ccc(-n2nc(C(F)(F)F)cc2OC2CCCCC2)nc1	> 500			
CS(=O)(=O)c1ccc(-n2nc(C(F)(F)F)c(C#N)c2OC2CCOC2)nc1 (stereo not drawn)	> 500			
CS(=O)(=O)c1ccc(-n2nc(C(F)(F)F)cc2OCC2CC2)nc1	> 500			
CS(=O)(=O)c1ccc(-n2nc(C(F)(F)F)c(C#N)c2Oc2ccccc2)nc1	> 500			
CC(C)Oc1c(Cl)c(C(F)(F)F)nn1-c1ccc(S(C)(=O)=O)cn1	> 500			
CCC(COC)Oc1c(C#N)c(C(F)(F)F)nn1-c1ccc(S(C)(=O)=O)cn1 (stereo not drawn)	> 500			
CCCCOc1cc(C(F)(F)F)nn1-c1ccc(S(C)(=O)=O)cn1	> 500			
CCC(CC)Oc1c(C)c(C(F)(F)F)nn1-c1ccc(S(C)(=O)=O)cn1	> 500			
C[C@@H]1CN(c2c(C#N)c(C(F)F)nn2-c2ccc(S(C)(=O)=O)cn2)C[C@H](C)O1	140	> 357	> 50000	AUC (Canis familiaris [4]): 4830 ng·h/mL
CS(=O)(=O)c1ccc(-n2nc(C(F)(F)F)cc2OC2CCCC2)nc1	> 500			
Cc1c(C(F)(F)F)nn(-c2ccc(S(C)(=O)=O)cn2)c1OC(C)C	> 500			
CS(=O)(=O)c1ccc(-n2nc(C(F)(F)F)cc2OCc2ccncc2)nc1	> 500			
CC(C)Oc1cc(C(F)(F)F)nn1-c1ccc(S(C)(=O)=O)cn1	> 500			Cmax [6]: 679 ng/mL; Tmax [7]: 0.8 h; half-life [8]: 34.8 h; AUC (Canis familiaris [9]): 6980 ng·h/mL
CCCC(C)Oc1c(C#N)c(C(F)(F)F)nn1-c1ccc(S(C)(=O)=O)cn1 (stereo not drawn)	> 500			
CS(=O)(=O)c1ccc(-n2nc(C(F)(F)F)cc2OCc2cccc3ccccc23)nc1	> 500			
Cc1c(C(F)(F)F)nn(-c2ccc(S(C)(=O)=O)cn2)c1OCC(C)C	> 500			

More lines, main results first:

IC50 (Cyclooxygenase-2) [nM]	Ratio (Canis lupus familiaris)	IC50 [1] [nM]	Structure (SMILES)	other results
19600			CCC(CC)Oc1cc(C(F)(F)F)nn1-c1ccc(S(C)(=O)=O)cn1	
400	8.1	3300	CC(C)CCCSc1c(C#N)c(C(F)(F)F)nn1-c1ccc(S(C)(=O)=O)cn1	
90	127	11800	CC(C)C(C)Oc1c(C#N)c(C(F)(F)F)nn1-c1ccc(S(C)(=O)=O)cn1 (stereo not drawn)	
70	117	8000	CS(=O)(=O)c1ccc(-n2nc(C(F)(F)F)c(C#N)c2OC2CCCCCC2)nc1	
80	12.1	900	CS(=O)(=O)c1ccc(-n2nc(C(F)(F)F)c(C#N)c2SCc2ccccc2)nc1	
170	11.8	2000	CCOCCSc1c(C#N)c(C(F)(F)F)nn1-c1ccc(S(C)(=O)=O)cn1	
550	46.3	25300	CS(=O)(=O)c1ccc(-n2nc(C(F)(F)F)c(C#N)c2OC2CCC2)nc1	
< 50	> 29.5	1500	CCC(C)Sc1c(C#N)c(C(F)(F)F)nn1-c1ccc(S(C)(=O)=O)cn1 (stereo not drawn)	
210			CS(=O)(=O)c1ccc(-n2nc(C(F)(F)F)c(C#N)c2OC2CCCC2)nc1	
140	78	10600	CS(=O)(=O)c1ccc(-n2nc(C(F)(F)F)c(C#N)c2OCC2CC=CCC2)nc1 (stereo not drawn)	Cmax [2]: 363 ng/mL; Tmax [3]: 1 h; AUC (Canis familiaris [4]): 742 ng·h/mL; half-life [5]: 2 h
300	11.7	3500	CCCCCSc1c(C#N)c(C(F)(F)F)nn1-c1ccc(S(C)(=O)=O)cn1	
170	> 287	> 50000	CCC(Oc1c(C#N)c(C(F)(F)F)nn1-c1ccc(S(C)(=O)=O)cn1)C(C)C (stereo not drawn)	
80			CS(=O)(=O)c1ccc(-n2nc(C(F)(F)F)c(C#N)c2OCC2CCC2)nc1	
< 50	> 3.8	200	CCCSc1c(C#N)c(C(F)(F)F)nn1-c1ccc(S(C)(=O)=O)cn1	
40	18.4	600	CS(=O)(=O)c1ccc(-n2nc(C(F)(F)F)c(C#N)c2SCc2ccccc2F)nc1	
60	3.6	200	CS(=O)(=O)c1ccc(-n2nc(C(F)(F)F)c(C#N)c2Sc2ccccc2)nc1	
200	35	7100	CC1CCCCC1Oc1c(C#N)c(C(F)(F)F)nn1-c1ccc(S(C)(=O)=O)cn1 (stereo not drawn)	
110	92	10000	CC(C)COc1c(C#N)c(C(F)(F)F)nn1-c1ccc(S(C)(=O)=O)cn1	
100	31.2	3200	CS(=O)(=O)c1ccc(-n2nc(C(F)(F)F)c(C#N)c2SC2CCCCC2)nc1	
< 500			CCC(CC)Oc1c(C#N)c(C(F)(F)F)nn1-c1ccc(S(C)(=O)=O)cn1	
< 90	340	29700	C=C1CCC(COc2c(C#N)c(C(F)(F)F)nn2-c2ccc(S(C)(=O)=O)cn2)CC1	
900	0.1	100	CS(=O)(=O)c1ccc(-n2nc(C(F)(F)F)c(C#N)c2Oc2cccc3c2CCCC3)nc1	
170	0.3	100	Cc1cccc(Oc2c(C#N)c(C(F)(F)F)nn2-c2ccc(S(C)(=O)=O)cn2)c1C	
60	6.8	400	CS(=O)(=O)c1ccc(-n2nc(C(F)(F)F)c(C#N)c2OCC2CCCC2)nc1	
4100			CC(C)COc1cc(C(F)(F)F)nn1-c1ccc(S(C)(=O)=O)cn1	
160	47	7600	CC1CCC(Oc2c(C#N)c(C(F)(F)F)nn2-c2ccc(S(C)(=O)=O)cn2)C1 (stereo not drawn)	
